Laboratory results from patent US20150173356A1, “COMPOSITIONS OF VOLATILE ORGANIC COMPOUNDS AND METHODS OF USE THEREOF” (Synthetic Genomics, Inc., priority 2009, published 2015).

Legend:
Test in all cases: Petri plate (PDA) volatile bioassay, liquid in a small cup in the centre of the plate
Assay type in all cases: cell-based
Conditions in all cases: 2.5-20 microliters in cup, sealed plate, 3 days
Ganoderma boninense = test system: Ganoderma boninense
Procedure: (§1) To test the bioactivity, the mixture was placed in a small cup in the center of a Petri plate with potato dextrose agar (PDA) (Strobel et al., 2001 Microbiology 147: 2943-2950). The volumes of liquid tested were 0, 2.5, 5.0, 10.0 and 20 microliters as per Strobel et al., supra. Then small cubes of fungal inoculum grown on PDA were also applied to the plate. The plates were sealed with parafilm and incubated for 3 days, at which time measurements of hyphal development were made. Also, after 3 days the small plug of fungal inoculum was removed from the plate and transferred to a fresh PDA plate to determine if the test fungus was still alive (capable of growth) and this was recorded.

Phytophthora palmivora = test system: Phytophthora palmivora
Procedure: as §1

Pythium ultimum = test system: Pythium ultimum
Procedure: as §1

Row | SMILES | growth inhibition (hyphal development) (Ganoderma boninense) | growth inhibition (hyphal development) (Phytophthora palmivora) | growth inhibition (hyphal development) (Pythium ultimum) | test fungus still alive (capable of growth) after transfer of inoculum plug to fresh PDA (Ganoderma boninense) | test fungus still alive (capable of growth) after transfer of inoculum plug to fresh PDA (Phytophthora palmivora) | test fungus still alive (capable of growth) after transfer of inoculum plug to fresh PDA (Pythium ultimum)
1 | COC(=O)C(C)C [methyl isobutyrate, methyl-2-methylpropanoate] | no growth inhibition | no growth inhibition | no growth inhibition | – | – | –
2 | CC(C)C(=O)O [isobutyric acid, 2-methyl propanoic acid] | inhibited | inhibited | inhibited | not killed | not killed | not killed
